# Laboratory results taken from patent publication US20070244006A1, “Fungicidal Mixtures” (priority 2004, published 2007).
# Legend:
# [1] = test system: Plasmopara viticola; assay: Activity against peronospora of grapevines caused by Plasmopara viticola, 9 day protective application; assay type: in vivo; settings: potted vines, inoculated 9 days after treatment
# Description: (§1) The active compounds, separately or jointly, were prepared as a stock solution comprising 0.25% by weight of active compound in acetone or DMSO. 1% by weight of the emulsifier Uniperol® EL (wetting agent having emulsifying and dispersant action based on ethoxylated alkylphenols) was added to this solution, and the mixture was diluted with water to the desired concentration.
# Leaves of potted vines were sprayed to runoff point with an aqueous suspension having the concentration of active compound stated below. To be able to assess the persistency of the substances, the plants were, after the spray coating had dried on, placed in a greenhouse for 9 days. Only then were the leaves inoculated with an aqueous zoospore suspension of Plasmopara viticola. The grapevines were then initially placed in a water-vapor-saturated chamber at 24° C. for 48 hours and then in a greenhouse at temperatures between 20 and 30° C. for 5 days. After this time, the plants were again placed in a humid chamber for 16 hours, to promote sporangiophore eruption. The extent of the development of the infection on the undersides of the leaves was then determined visually.
# (§2) Evaluation was carried out analogously to example 1.
# [2] = test system: Pyrenophora teres; assay: Activity against net blotch of barley caused by Pyrenophora teres, 1 day protective application; assay type: in vivo, Pyrenophora [syn. Drechslera] teres; settings: barley seedlings cultivar Hanna, inoculated 24 hours after treatment
# Description: as §1
# Leaves of potted barley seedlings of the cultivar “Hanna” were sprayed to runoff point with an aqueous suspension having the concentration of active compound stated below. 24 hours after the spray coating had dried on, the test plants were inoculated with an aqueous spore suspension of Pyrenophora [syn. Drechslera] teres, the net blotch pathogen. The test plants were then placed in a greenhouse at temperatures between 20 and 24° C. and at 95 to 100% relative atmospheric humidity. After 6 days, the extent of the development of the disease was determined visually in % infection of the entire leaf area.
# as §2
# [3] = test system: Venturia inaequalis; assay: Activity against scab on apple leaves caused by Venturia inaequalis, protective application; assay type: in vivo; settings: inoculated 12 days after treatment
# Description: as §1
# Leaves of apples were sprayed to runoff point with an aqueous suspension having the concentration of active compound stated below. After 12 days, the treated plants were inoculated with an aqueous spore suspension of Venturia inaequalis. The apples were then initially placed in a water-vapor-saturated chamber at 24° C. for 48 hours and then in a greenhouse at temperatures between 20 and 24° C. for 20 days. The extent of the development of the infection on the upper sides of the leaves was then determined visually.
# The visually determined percentages of infected leaf areas were converted into efficacies in % of the untreated control:
# The efficacy (E) is calculated as follows using Abbot's formula: E=(1−α/β)[…] α corresponds to the fungal infection of the treated plants in % and β corresponds to the fungal infection of the untreated (control) plants in % An efficacy of 0 means that the infection level of the treated plants corresponds to that of the untreated control plants; an efficacy of 100 means that the treated plants were not infected.
# The expected efficacies of mixtures of active compounds were determined using Colby's formula (Colby, S. R. “Calculating synergistic and antagonistic responses of herbicide Combinations”, Weeds, 15, 20-22, 1967) and compared with the observed efficacies.
# Colby's formula: E=x+y−x·y/100
# E expected efficacy, expressed in % of the untreated control, when using the mixture of the active compounds A and B at the concentrations a and b x efficacy, expressed in % of the untreated control, when using the active compound A at the concentration a y efficacy, expressed in % of the untreated control, when using the active compound B at the concentration b
Structure (SMILES),Efficacy in % of the untreated control ([1]; 50 ppm in the spray liquor) [%],Efficacy in % of the untreated control ([2]; 3.1 ppm in the spray liquor) [%],Efficacy in % of the untreated control ([3]; 50 ppm in the spray liquor) [%],also measured
"CC1CCN(c2c(-c3c(F)cc(F)cc3F)c(Cl)nc3ncnn23)CC1 [I-1, 5-chloro-7-(4-methylpiperidin-1-yl)-6-(2,4,6-trifluorophenyl)-[1,2,4]triazolo[1,5-a]pyrimidine]",25,66,48,Efficacy in % of the untreated control ([1]; 25 ppm in the spray liquor): 13%; Efficacy in % of the untreated control ([3]; 25 ppm in the spray liquor): 18%
"C[N+](C)(C)CCCl [chlormequat chloride (IIc.1), chlormequat chloride]",–,0,–,Efficacy in % of the untreated control ([2]; 6.3 ppm in the spray liquor): 0%
"CC(=NNC(=O)Nc1cc(F)cc(F)c1)c1ncccc1C(=O)O [diflufenzopyr (III.1), 2-{1-[4-(3,5-difluorophenyl)semicarbazono]ethyl}nicotinic acid]",–,–,–,Efficacy in % of the untreated control ([2]; 0.031 ppm in the spray liquor): 0%
"CCC(=O)C1=C([O-])CC(C(=O)[O-])CC1=O.[Ca+2] (stereo not drawn) [prohexadione-Ca (IIa.1), prohexadione-Ca]",0,–,4,Efficacy in % of the untreated control ([1]; 100 ppm in the spray liquor): 0%; Efficacy in % of the untreated control ([3]; 100 ppm in the spray liquor): 29%
